13 compounds from patent US20250092065A1, “2-(INDAZOL-5-YL)-6-(PIPERIDIN-4-YL)-1,7-NAPHTHYRIDINE DERIVATIVES AND RELATED COMPOUNDS AS MODULATORS FOR SPLICING NUCLEIC ACIDS AND FOR THE TREATMENT OF PROLIFERATIVE DISEASES” (REMIX THERAPEUTICS INC., priority 2022, published 2025) can be followed below.

Read-outs that look alike come from different tables or passages of the source.

Data set [1] relates to HTT mRNA. Nature of the data set: RT-qPCR splicing assay, HTT mRNA canonical (CJ) and alternative (AJ) junction. The format is cell-based, human. To be noted: Homo sapiens; for AC50: HTT alternative junction mRNA, read-out: HTT AJ (increase in AJ mRNA, AC50). The procedure, abridged: (§1)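 Junction-specific RT-qPCR read-out: CJ and AJ isoform levels, housekeeper-normalized (GAPDH/GUSB/PPIA), ΔΔCt vs DMSO, converted to RQ then % response. Cells: A673 (DMEM/10% FBS, adhered 24 h) or K562 (IMDM/10% FBS). Compound 11-pt 3-fold, top 10 uM, 24 h, 37 °C.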

In data set [2] the test system is MYB mRNA. Nature of the data set: RT-qPCR splicing assay, MYB mRNA canonical (CJ) and alternative (AJ) junction. It is filed as cell-based, human. To be noted: Homo sapiens; for AC50: MYB alternative junction mRNA, read-out: MYB AJ (increase in AJ mRNA, AC50). The gist of the method:
as §1

Data set [3] relates to SMN2 mRNA. Put plainly: RT-qPCR splicing assay, SMN2 mRNA. It is filed as cell-based, human. To be noted: Homo sapiens, canonical junction qPCR panel, Table 4; read-out: SMN2 IC50 (decrease in CJ mRNA levels). The procedure, abridged:
as §1

The test system of data set [4] is MYB. Nature of the data set: HiBiT protein abundance assay, MYB (K562 HiBiT knock-in). The format is cell-based, human. The following applies: HiBiT knock-in K562 cells, 24 hours, top dose 10 μM. The gist of the method:
(§2)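 K562 HiBiT knock-in, 24 h, 37 °C, top 10 μM final, 3-fold ×10, DMSO ≤0.25%. Lytic HiBiT luminescence; PC = parental K562, NC = DMSO; 4PL IC50.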

The subject of data set [5] is HTT. Put plainly: HiBiT protein abundance assay, HTT (K562 HiBiT knock-in). The format is cell-based, human. The following applies: HiBiT knock-in K562 cells, 24 hours, top dose 10 μM. The gist of the method:
as §2

Data set [6] has as its system Target C. Put plainly: HiBiT protein abundance assay, Target C (K562 HiBiT knock-in). The format is cell-based, human. To be noted: HiBiT knock-in K562 cells, 24 hours, top dose 10 μM. The procedure, abridged:
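K562 HiBiT knock-in cells (10000/well) were treated 24 h at 37° C with a 10-point 3-fold dilution series (top 10 μM final, ≤0.25% DMSO). HiBiT luminescence was read after lytic LgBiT detection. Percent response used unmodified K562 and DMSO-treated knock-in controls, and IC50 came from a four-parameter fit at 50% of untreated.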

In data set [7] the test system is K562 cells. Put plainly: Cell Titer Glo 2.0 cell viability (toxicity) assay, K562. To be noted: 500 cells/well, 72 hours.
[8] abbreviates: HTT canonical junction mRNA, RT-qPCR, read-out: HTT CJ (decrease in CJ mRNA levels, IC50).
[9] abbreviates: canonical junction qPCR panel, Table 4, read-out: HTT IC50 (decrease in CJ mRNA levels).
[10] abbreviates: MYB canonical junction mRNA, RT-qPCR, read-out: MYB CJ (decrease in CJ mRNA levels, IC50).
The mark [11] stands for this setting: canonical junction qPCR panel, Table 4, read-out: MYB IC50 (decrease in CJ mRNA levels).

In the case of `Cc1nc2cc(O)c(-c3ccc4nc(N5CC[C@@H](NC6CC6)C5)ccc4n3)cc2o1` [Compound 212], the AC50 in data set [1] (RT-qPCR) was < 0.1 µM; in data set [2] (RT-qPCR), 0.1 to 1 µM. In addition, the concentration for half-maximal inhibition (IC50) in data set [1] (setting [8]) was < 0.1 µM; in data set [1] (setting [9]) it was < 0.1 µM; in data set [2] (setting [10]) it was 0.1 to 1 µM; in data set [2] (setting [11]) it was 0.1 to 1 µM; in data set [3] it was < 0.1 µM; in data set [4], 0.1 to 1 µM. The IC50 in data set [5] was < 0.1 µM; in data set [6] it was 0.1 to 1 µM. Also, the “Effect of Exemplary Compounds on Cell Viability, K562” value (“Effect of Exemplary Compounds” below) in data set [7] is on record as “B (B represents 100-1000 nM)”.
With `Cc1nc2c(C)c(O)c(-c3ccc4nc(N5CC[C@@H](NC(C)(C)C)C5)ccc4n3)cc2o1` [Compound 215], the AC50 in data set [1] (RT-qPCR) and in data set [2] (RT-qPCR) was < 0.1 µM throughout. The half-inhibitory concentration (IC50) in data set [1] (setting [8]), in data set [1] (setting [9]), in data set [2] (setting [10]), in data set [2] (setting [11]), in data set [3] and in data set [4] was < 0.1 µM throughout. For the same compound, the half-maximal inhibitory concentration (IC50) in data set [5] and in data set [6] was < 0.1 µM in each case. Further, in data set [7], the “Effect of Exemplary Compounds” value is reported as “A (A represents <100 nM)”.
`Cn1cc2cc(-c3cc4ccc(N5CCC(NC(C)(C)C)C5)nc4cn3)c(O)cc2n1` (centres unmarked) [Compound 218]: the AC50 in data set [1] (RT-qPCR) was > 10 µM; in data set [2] (RT-qPCR), 1 to 10 µM. For the same compound, the half-inhibitory concentration (IC50) in data set [1] (setting [8]) is > 10 µM; in data set [1] (setting [9]) it was > 10 µM; in data set [2] (setting [10]) it was > 10 µM; in data set [2] (setting [11]) it was > 10 µM; in data set [3], 0.1 to 1 µM; in data set [4] it was 1 to 10 µM. The 50% inhibitory concentration (IC50) in data set [5] and in data set [6] was > 10 µM each time. In data set [7], the “Effect of Exemplary Compounds” value was “C (C represents 1000-9999 nM)”.
As for `Cn1cc2cc(-c3ccc4nc(N5CC[C@@H](NC6(C)CC6)C5)ccc4n3)c(O)cc2n1` [Compound 220], the concentration at half-maximal activity (AC50) in data set [1] (RT-qPCR) and in data set [2] (RT-qPCR) was < 0.1 µM each time. Besides, the IC50 in data set [1] (setting [8]), in data set [1] (setting [9]), in data set [2] (setting [10]), in data set [2] (setting [11]), in data set [3] and in data set [4] was < 0.1 µM in each case. The IC50 in data set [5] and in data set [6] was < 0.1 µM in each case. Also, in data set [7], the “Effect of Exemplary Compounds” value is listed as “A (A represents <100 nM)”.
With `Cn1cc2cc(-c3ccc4nc(N5CC[C@H](NC6(C)CC6)C5)ccc4n3)c(O)cc2n1` [Compound 221], the concentration at half-maximal activity (AC50) in data set [1] (RT-qPCR) and in data set [2] (RT-qPCR) was < 0.1 µM throughout. Also, the half-maximal inhibitory concentration (IC50) in data set [1] (setting [8]), in data set [1] (setting [9]), in data set [2] (setting [10]), in data set [2] (setting [11]), in data set [3] and in data set [4] was < 0.1 µM each time. The half-inhibitory concentration (IC50) in data set [5] and in data set [6] was < 0.1 µM each time. Besides, the “Effect of Exemplary Compounds” value in data set [7] was “B (B represents 100-1000 nM)”.
For the compound `Cn1cc2cc(-c3ccc4nc(N5CC[C@H](NC6(C)CC6)C5)ccc4n3)c(O)c(F)c2n1` [Compound 222], the AC50 in data set [1] (RT-qPCR) and in data set [2] (RT-qPCR) was < 0.1 µM throughout. Moreover, the IC50 in data set [1] (setting [8]), in data set [1] (setting [9]), in data set [2] (setting [10]), in data set [2] (setting [11]), in data set [3] and in data set [4] was < 0.1 µM in each case. The IC50 in data set [5] and in data set [6] was < 0.1 µM in each case. The “Effect of Exemplary Compounds” value in data set [7] is “B (B represents 100-1000 nM)”.
For the compound `Cn1cc2cc(-c3ccc4nc(N5CC[C@@H](NC6(C)CC6)C5)ccc4n3)c(O)c(F)c2n1` [Compound 223], the AC50 in data set [1] (RT-qPCR) and in data set [2] (RT-qPCR) was < 0.1 µM each time. The IC50 in data set [1] (setting [8]), in data set [1] (setting [9]), in data set [2] (setting [10]), in data set [2] (setting [11]), in data set [3] and in data set [4] was < 0.1 µM throughout. The 50% inhibitory concentration (IC50) in data set [5] and in data set [6] was < 0.1 µM each time. Moreover, the “Effect of Exemplary Compounds” value in data set [7] is “A (A represents <100 nM)”.
For the compound `Cc1c(O)c(-c2ccc3nc(N4CCC(NC5(C)CC5)C4)ccc3n2)cc2cn(C)nc12` (centres unmarked) [Compound 224], the half-maximal activity concentration (AC50) in data set [1] (RT-qPCR) and in data set [2] (RT-qPCR) was < 0.1 µM in each case. The 50% inhibitory concentration (IC50) in data set [1] (setting [8]), in data set [1] (setting [9]), in data set [2] (setting [10]), in data set [2] (setting [11]), in data set [3] and in data set [4] was < 0.1 µM in each case. Besides, the half-inhibitory concentration (IC50) in data set [5] and in data set [6] was < 0.1 µM in each case. The “Effect of Exemplary Compounds” value in data set [7] is listed as “B (B represents 100-1000 nM)”.
With `Cc1c(O)c(-c2ccc3nc(N4CC[C@@H](NC5(C)CC5)C4)ccc3n2)cc2cn(C)nc12` [Compound 225], the AC50 in data set [1] (RT-qPCR) and in data set [2] (RT-qPCR) was < 0.1 µM in each case. For the same compound, the concentration for half-maximal inhibition (IC50) in data set [1] (setting [8]), in data set [1] (setting [9]), in data set [2] (setting [10]), in data set [2] (setting [11]), in data set [3] and in data set [4] was < 0.1 µM throughout. In addition, the 50% inhibitory concentration (IC50) in data set [5] and in data set [6] was < 0.1 µM each time. Moreover, the “Effect of Exemplary Compounds” value in data set [7] is “B (B represents 100-1000 nM)”.
Turning to `Cc1c(O)c(-c2ccc3nc(N4CC[C@H](NC5(C)CC5)C4)ccc3n2)cc2cn(C)nc12` [Compound 226], the concentration at half-maximal activity (AC50) in data set [1] (RT-qPCR) is < 0.1 µM; in data set [2] (RT-qPCR) it was 0.1 to 1 µM. In addition, the half-inhibitory concentration (IC50) in data set [1] (setting [8]), in data set [1] (setting [9]), in data set [2] (setting [10]), in data set [2] (setting [11]), in data set [3] and in data set [4] was < 0.1 µM throughout. For the same compound, the IC50 in data set [5] and in data set [6] was < 0.1 µM in each case. The “Effect of Exemplary Compounds” value in data set [7] is “B (B represents 100-1000 nM)”.
Turning to `Cc1nc2cc(O)c(-c3ccc4nc(N5CCC(NC6CCC6)C5)ccc4n3)cc2o1` (centres unmarked) [Compound 228], the AC50 in data set [1] (RT-qPCR) and in data set [2] (RT-qPCR) was < 0.1 µM in each case. Besides, the IC50 is < 0.1 µM in data set [1] (setting [8]); < 0.1 µM in data set [1] (setting [9]); 0.1 to 1 µM in data set [2] (setting [10]); 0.1 to 1 µM in data set [2] (setting [11]); < 0.1 µM in data set [3]; < 0.1 µM in data set [4]. In addition, the IC50 is < 0.1 µM in data set [5] and 0.1 to 1 µM in data set [6]. Besides, the “Effect of Exemplary Compounds” value in data set [7] is given as “B (B represents 100-1000 nM)”.
In the case of `Cc1nc2cc(O)c(-c3ccc4nc(N5CC[C@@H](NC(C)C)C5)ccc4n3)cc2o1` [Compound 232], the AC50 in data set [1] (RT-qPCR) and in data set [2] (RT-qPCR) was < 0.1 µM each time. The IC50 in data set [1] (setting [8]), in data set [1] (setting [9]), in data set [2] (setting [10]), in data set [2] (setting [11]), in data set [3] and in data set [4] was < 0.1 µM in each case. The IC50 in data set [5] and in data set [6] was < 0.1 µM throughout. In addition, the “Effect of Exemplary Compounds” value in data set [7] is listed as “A (A represents <100 nM)”.
On to `Cc1nc2cc(O)c(-c3ccc4nc(N5CC[C@H](NC(C)C)C5)ccc4n3)cc2o1` [Compound 233], for which the AC50 in data set [1] (RT-qPCR) and in data set [2] (RT-qPCR) was < 0.1 µM each time. Moreover, the IC50 in data set [1] (setting [8]), in data set [1] (setting [9]), in data set [2] (setting [10]), in data set [2] (setting [11]), in data set [3] and in data set [4] was < 0.1 µM throughout. Besides, the IC50 in data set [5] and in data set [6] was < 0.1 µM in each case. Also, the “Effect of Exemplary Compounds” value in data set [7] is “B (B represents 100-1000 nM)”.
